Assay results taken from ChEMBL document CHEMBL5257088 (J Nat Prod, 2023).
Activity calls are given as the source filed them. The rule behind the calls is not given here.

What was measured:
[1] = target: T1, Muscarinic acetylcholine receptor M1 (Homo sapiens) (UniProt P11229); assay: (§1) Partial agonist activity at N-terminal FLAG tagged/C-terminal NanoLuc tagged human muscarinic M1 receptor expressed in HEK293T cells using furimazine as substrate assessed as receptor activation at 100 uM preincubated with substrate for 1 min followed by compound addition and measured for 6 mins 27 sec by NanoBRET assay; format: cell-based; conditions: time 387.0 sec
T1 sequence (whole entry): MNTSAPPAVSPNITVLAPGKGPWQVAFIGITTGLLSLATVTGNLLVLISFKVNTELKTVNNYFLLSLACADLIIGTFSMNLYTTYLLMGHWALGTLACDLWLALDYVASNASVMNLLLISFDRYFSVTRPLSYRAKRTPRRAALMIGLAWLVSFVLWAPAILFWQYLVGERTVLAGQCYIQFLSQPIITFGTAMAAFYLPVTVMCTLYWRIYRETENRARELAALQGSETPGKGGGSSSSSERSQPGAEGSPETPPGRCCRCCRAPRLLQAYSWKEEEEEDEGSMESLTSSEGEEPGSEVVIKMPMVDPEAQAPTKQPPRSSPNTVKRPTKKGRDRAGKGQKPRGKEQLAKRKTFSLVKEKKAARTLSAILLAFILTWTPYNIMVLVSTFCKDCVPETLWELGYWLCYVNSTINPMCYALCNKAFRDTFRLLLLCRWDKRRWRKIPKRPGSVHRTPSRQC

[2] = target: T2, Muscarinic acetylcholine receptor M5 (Homo sapiens) (UniProt P08912); assay: as §1, with “M5” for “M1”; format: cell-based; conditions: time 387.0 sec
T2 sequence (whole entry): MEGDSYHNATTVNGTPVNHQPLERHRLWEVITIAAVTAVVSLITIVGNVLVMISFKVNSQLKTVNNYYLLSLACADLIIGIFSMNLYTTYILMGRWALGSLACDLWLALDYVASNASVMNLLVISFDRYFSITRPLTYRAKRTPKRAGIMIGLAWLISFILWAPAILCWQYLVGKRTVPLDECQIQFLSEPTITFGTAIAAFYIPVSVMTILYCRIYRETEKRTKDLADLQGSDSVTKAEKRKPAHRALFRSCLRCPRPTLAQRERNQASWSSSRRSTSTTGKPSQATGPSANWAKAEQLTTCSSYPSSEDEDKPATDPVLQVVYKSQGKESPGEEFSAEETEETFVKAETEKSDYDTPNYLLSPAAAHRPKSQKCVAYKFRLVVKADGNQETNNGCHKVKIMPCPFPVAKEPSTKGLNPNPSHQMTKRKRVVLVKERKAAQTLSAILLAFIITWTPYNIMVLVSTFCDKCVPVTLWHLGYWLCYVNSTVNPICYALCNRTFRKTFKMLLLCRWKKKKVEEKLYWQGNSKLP

[3] = target: T3, Muscarinic acetylcholine receptor M3 (Homo sapiens, UniProt P20309); assay: Partial agonist activity at C-terminal NanoLuc tagged human muscarinic M3 receptor expressed in HEK293T cells using furimazine as substrate assessed as receptor activation at 100 uM preincubated with substrate for 1 min followed by compound addition and measured for 6 mins 27 sec by NanoBRET assay; format: cell-based; conditions: time 387.0 sec
Target sequence in this assay (P20309 whole entry, looked up): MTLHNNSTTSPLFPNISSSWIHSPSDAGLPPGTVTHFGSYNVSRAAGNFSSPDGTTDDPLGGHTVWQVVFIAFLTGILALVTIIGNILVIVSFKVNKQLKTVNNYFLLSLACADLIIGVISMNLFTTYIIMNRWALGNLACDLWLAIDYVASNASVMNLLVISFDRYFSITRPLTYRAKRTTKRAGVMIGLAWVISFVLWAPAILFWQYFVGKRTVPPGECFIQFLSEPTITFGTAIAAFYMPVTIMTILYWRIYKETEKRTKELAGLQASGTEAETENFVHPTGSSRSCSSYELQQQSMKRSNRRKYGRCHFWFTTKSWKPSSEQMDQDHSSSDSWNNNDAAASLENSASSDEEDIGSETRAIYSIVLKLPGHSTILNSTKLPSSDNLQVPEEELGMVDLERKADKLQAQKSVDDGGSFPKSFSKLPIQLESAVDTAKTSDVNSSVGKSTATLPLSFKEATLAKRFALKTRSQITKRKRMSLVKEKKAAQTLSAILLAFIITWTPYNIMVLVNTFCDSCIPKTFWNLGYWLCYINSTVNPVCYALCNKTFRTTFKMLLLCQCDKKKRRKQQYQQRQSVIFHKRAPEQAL

[4] = target: T4, Muscarinic acetylcholine receptor M4 (Homo sapiens, UniProt P08173)
T4 sequence (P08173 whole entry): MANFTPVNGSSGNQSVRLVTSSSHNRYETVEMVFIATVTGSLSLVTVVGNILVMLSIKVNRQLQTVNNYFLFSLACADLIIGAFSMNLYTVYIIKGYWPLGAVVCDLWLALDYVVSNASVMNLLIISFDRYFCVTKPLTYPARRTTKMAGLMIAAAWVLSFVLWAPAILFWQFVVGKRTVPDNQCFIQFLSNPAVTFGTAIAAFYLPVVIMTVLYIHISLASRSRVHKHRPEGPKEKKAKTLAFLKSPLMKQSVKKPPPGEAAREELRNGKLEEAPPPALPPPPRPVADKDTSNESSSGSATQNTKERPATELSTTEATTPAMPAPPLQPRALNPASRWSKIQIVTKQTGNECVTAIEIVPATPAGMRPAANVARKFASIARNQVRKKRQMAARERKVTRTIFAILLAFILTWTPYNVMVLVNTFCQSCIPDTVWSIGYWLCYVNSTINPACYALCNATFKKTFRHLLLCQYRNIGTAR
Description: Partial agonist activity at N-terminal FLAG tagged/C-terminal NanoLuc tagged human muscarinic M4 receptor expressed in HEK293T cells using furimazine as substrate assessed as receptor activation preincubated with substrate for 1 min followed by compound addition and measured for 6 mins 27 sec by NanoBRET assay

[5] = target: T5, Muscarinic acetylcholine receptor M2 (Homo sapiens, UniProt P08172)
T5 sequence (P08172 whole entry): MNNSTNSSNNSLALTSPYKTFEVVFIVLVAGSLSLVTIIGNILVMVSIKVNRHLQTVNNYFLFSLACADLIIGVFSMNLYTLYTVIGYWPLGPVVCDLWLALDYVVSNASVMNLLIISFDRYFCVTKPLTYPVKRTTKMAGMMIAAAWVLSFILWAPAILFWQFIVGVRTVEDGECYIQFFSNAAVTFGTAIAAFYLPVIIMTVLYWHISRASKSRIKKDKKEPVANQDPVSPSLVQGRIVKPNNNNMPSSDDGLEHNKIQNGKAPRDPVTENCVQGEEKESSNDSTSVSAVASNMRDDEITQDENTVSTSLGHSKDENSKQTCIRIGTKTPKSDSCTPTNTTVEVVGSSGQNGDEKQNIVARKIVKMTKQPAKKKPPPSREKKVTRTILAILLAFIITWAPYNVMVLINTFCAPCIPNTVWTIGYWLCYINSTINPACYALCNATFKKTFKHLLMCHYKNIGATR
Description: Partial agonist activity at C-terminal NanoLuc tagged human muscarinic M2 receptor expressed in HEK293T cells using furimazine as substrate assessed as receptor activation preincubated with substrate for 1 min followed by compound addition and measured for 6 mins 27 sec by NanoBRET assay

[6] = target: T6, Muscarinic acetylcholine receptor M1 (Homo sapiens, UniProt P11229)
T6 sequence (P11229 whole entry): T1 sequence (whole entry)
Description: Partial agonist activity at N-terminal FLAG tagged/C-terminal NanoLuc tagged human muscarinic M1 receptor expressed in HEK293T cells using furimazine as substrate assessed as receptor activation preincubated with substrate for 1 min followed by compound addition and measured for 6 mins 27 sec by NanoBRET assay

[7] = target: T7, Muscarinic acetylcholine receptor M5 (Homo sapiens, UniProt P08912)
T7 sequence (P08912 whole entry): T2 sequence (whole entry)
Description: Partial agonist activity at N-terminal FLAG tagged/C-terminal NanoLuc tagged human muscarinic M5 receptor expressed in HEK293T cells using furimazine as substrate assessed as receptor activation preincubated with substrate for 1 min followed by compound addition and measured for 6 mins 27 sec by NanoBRET assay

[8] = target: T3, Muscarinic acetylcholine receptor M3
Target sequence in this assay (P20309 whole entry): as the sequence (P20309 whole entry, looked up) above
Description: Partial agonist activity at C-terminal NanoLuc tagged human muscarinic M3 receptor expressed in HEK293T cells using furimazine as substrate assessed as receptor activation preincubated with substrate for 1 min followed by compound addition and measured for 6 mins 27 sec by NanoBRET assay

[9] = target: T8, Muscarinic acetylcholine receptor M4 (Homo sapiens) (UniProt P08173); assay: as §1, with “M4” for “M1”; format: cell-based; conditions: time 387.0 sec
T8 sequence (whole entry): T4 sequence (P08173 whole entry)

Compound | Activity [1] | Activity [2] | Activity [3] | EC50 [4] [µM] | EC50 [5] [µM] | EC50 [6] [µM] | EC50 [7] [µM] | EC50 [8] [µM] | Activity [9]
Cn1c[n+](CCCCCC[N+](C)(C)CC(C)(C)CN2C(=O)c3cccc4cccc(c34)C2=O)cc1CC1COC(=O)C1 (configuration not stated) | inactive | inactive | inactive | 36.3 |  |  |  |  | 
CC[C@@H]1C(=O)OC[C@@H]1Cc1c[n+](CCCCCCCC[N+](C)(C)CC(C)(C)CN2C(=O)c3cccc4cccc(c34)C2=O)cn1C | inactive | inactive | inactive | 0.0955 |  |  |  |  | 
CC(C)(CN1C(=O)c2cccc3cccc(c23)C1=O)C[N+](C)(C)CCCCCC[n+]1c[nH]c(CC2COC(=O)C2)c1 (configuration not stated) |  | inactive | inactive | 2.63 | 0.251 | 0.251 |  |  | 
O=C1C[C@@H](Cc2cnc[nH]2)CO1 |  |  |  | 7.41 | 1.38 | 6.17 | 14.8 | 20.9 | 
CC[C@@H]1C(=O)OC[C@@H]1Cc1c[n+](CCCCCC[N+](C)(C)CC(C)(C)CN2C(=O)c3cccc4cccc(c34)C2=O)cn1C |  |  |  |  | 1.07 | 34.7 |  | 16.2 | 
CC[C@H]1C(=O)OC[C@@H]1Cc1c[n+](CCCCCC[N+](C)(C)CC(C)(C)CN2C(=O)c3cccc4cccc(c34)C2=O)cn1C |  |  |  |  | 0.537 | 1.74 |  | 2.82 | 
CC[C@H]1C(=O)OC[C@@H]1Cc1c[n+](CCCCCCCC[N+](C)(C)CC(C)(C)CN2C(=O)c3cccc4cccc(c34)C2=O)cn1C | inactive | inactive |  |  |  |  |  | 31.6 | inactive
Cn1cncc1C[C@H]1COC(=O)C1 [PILOSININE] | inactive |  | inactive |  |  |  | 26.3 |  | inactive
